According to ChEMBL document CHEMBL4177629, “Synthesis, anticancer, structural, and computational docking studies of 3-benzylchroman-4-one derivatives” (Bioorg Med Chem Lett, 2017):

Experiments:
HeLa = test: Cytotoxicity against human HeLa cells assessed as reduction in cell viability after 24 hrs by MTT assay; assay type: functional, cell-based
BT-549 = test: Cytotoxicity against human BT549 cells assessed as reduction in cell viability after 24 hrs by MTT assay; assay type: functional, cell-based; conditions: BT-549, 24 h
Vero = test: Cytotoxicity against African green monkey Vero cells assessed as reduction in cell viability after 24 hrs by MTT assay; assay type: cell-based; conditions: Chlorocebus sabaeus
[1] = Inhibition of glutathione S-transferase (unknown origin); design: species or system Homo sapiens
KB = test: Cytotoxicity against human KB cells by SRB assay; assay type: functional, cell-based
Lu1 = test: Cytotoxicity against human Lu1 cells by SRB assay; assay type: functional, cell-based
SK-MEL-2 = test: Cytotoxicity against human SK-MEL-2 cells by SRB assay; assay type: functional, cell-based

Row | Compound | IC50 (HeLa) [µM] | IC50 (BT-549) [µM] | IC50 (Vero) [µM] | IC50 [1] [µM] | IC50 (KB) [µM] | IC50 (Lu1) [µM] | IC50 (SK-MEL-2) [µM]
1 | COc1ccc2c(c1)OCC(Cc1ccc(OC)c(O)c1)C2=O (stereo not given) | 50.1 | 30.6 | > 200 | – | – | – | –
2 | O=C1c2ccccc2OCC1Cc1ccc(O)cc1 (stereo not given) | 42.8 | 20.1 | > 200 | – | – | – | –
3 | O=C1c2ccccc2OCC1Cc1ccc(Cl)cc1 (stereo not given) | 61.9 | 69.3 | > 200 | – | – | – | –
4 | Cc1ccc(CC2COc3ccccc3C2=O)cc1 (stereo not given) | 48.9 | 42.2 | > 200 | – | – | – | –
5 | Cc1ccc2c(c1)OCC(Cc1ccc(O)cc1)C2=O (stereo not given) | 43 | 28.7 | > 200 | – | – | – | –
6 | COc1ccc(CC2COc3ccc(C)cc3C2=O)cc1 (stereo not given) | 76.3 | > 100 | > 200 | – | – | – | –
7 | COc1ccc2c(c1)C(=O)[C@@H](Cc1cc(O)cc(O)c1O)CO2 | – | – | – | 17.1 | – | – | –
8 | COc1ccc(CC2COc3ccccc3C2=O)c(OC)c1 (stereo not given) | 38.3 | 61.9 | > 200 | – | – | – | –
9 | COc1ccc(CC2COc3ccccc3C2=O)cc1OC (stereo not given) | > 100 | > 100 | > 200 | – | – | – | –
10 | COc1ccc(CC2COc3cc(C)ccc3C2=O)cc1 (stereo not given) | 68.3 | 42.1 | > 200 | – | – | – | –
11 | COc1ccc(C[C@@H]2COc3cc(OC)c(C)c(O)c3C2=O)c(O)c1 | – | – | – | – | 0.51 to 0.66 | 0.51 to 0.66 | 0.51 to 0.66
12 | COc1ccc(CC2COc3ccccc3C2=O)c(OC)c1OC (stereo not given) | > 100 | > 100 | > 200 | – | – | – | –
13 | O=C1c2ccccc2OCC1Cc1ccc(F)cc1 (stereo not given) | > 200 | > 200 | > 200 | – | – | – | –
14 | O=C1c2cc(O)ccc2OC[C@@H]1Cc1cc(O)cc(O)c1O | – | – | – | 16.5 | – | – | –
15 | COc1ccc(CC2COc3ccccc3C2=O)cc1 (stereo not given) | > 100 | > 100 | > 200 | – | – | – | –
16 | COc1ccc(CC2COc3ccccc3C2=O)cc1O (stereo not given) | 20.4 | > 100 | > 200 | – | – | – | –
17 | COc1ccc(CC2COc3cccc(OC)c3C2=O)cc1O (stereo not given) | > 200 | > 200 | > 200 | – | – | – | –
18 | COc1ccc2c(c1)OCC(Cc1ccc(O)cc1)C2=O (stereo not given) | 50.4 | 24.3 | > 200 | – | – | – | –
